In PubChem BioAssay (NCI) one finds TGI and GI50 data, which are given here for 36 compounds.

Test systems include DLD-1 colon; LXFL 529 NSCLC; M19-MEL melanoma; SNB-78 CNS; XF 498 CNS; DMS 114 small cell lung; HOP-18 NSCLC; RXF-631 renal; MDA-N.
What all share (test): NCI tumour cell line growth inhibition, 48 h

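Growth conditions: 96-well plates. Treatment: test compound, 48 hours, 5 concentrations. Analysis: linear interpolation between bracketing concentrations; unreached endpoints set to highest concentration. GI50 = concentration required for 50% inhibition of growth. TGI is the concentration that stops growth completely.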 A value given as a limit tells only on which side of the number the result lay.

On to `CC(C)(C)CC(C)(C)c1cc2c(O)c(c1)Cc1cc(C(C)(C)CC(C)(C)C)cc(c1O)Cc1cc(C(C)(C)CC(C)(C)C)cc(c1O)Cc1cc(C(C)(C)CC(C)(C)C)cc(c1O)Cc1cc(C(C)(C)CC(C)(C)C)cc(c1O)Cc1cc(C(C)(C)CC(C)(C)C)cc(c1O)Cc1cc(C(C)(C)CC(C)(C)C)cc(c1O)Cc1cc(C(C)(C)CC(C)(C)C)cc(c1O)C2`, for which the TGI with DLD-1 colon, in the assay with LXFL 529 NSCLC, with M19-MEL melanoma, with SNB-78 CNS and with XF 498 CNS was over 100 µM each time.
In the case of `CCCCCCCCCCCc1cc(=O)c2c(O)cccc2o1`, the TGI with DLD-1 colon, in the assay with DMS 114 small cell lung, with HOP-18 NSCLC, in the assay on LXFL 529 NSCLC, in the assay with M19-MEL melanoma and in the assay on RXF-631 renal was over 100 µM throughout. Moreover, the TGI in the assay with SNB-78 CNS and with XF 498 CNS was over 100 µM in each case.
The compound `Cn1c(=S)c2[nH]c(SCc3cccnc3)nc2n(C)c1=O` showed a TGI in the assay on MDA-N of over 100 µM.
On the same count and under the same terms, the figure for `COc1ccc2c3c1OC1C4(CCC5C(C2)N(CC2CC2)CCC351)OCCO4` (configuration not stated) is over 100 µM.
On to `CC1=CC[C@@H]2C(=O)C=CC=C[C@H]12.[C-]#[O+].[C-]#[O+].[C-]#[O+].[Fe]`, for which the GI50 in the assay on DLD-1 colon, in the assay on DMS 114 small cell lung, in the assay with HOP-18 NSCLC and with M19-MEL melanoma was over 100 µM each time. Also, the TGI with DLD-1 colon, in the assay with DMS 114 small cell lung, with HOP-18 NSCLC and in the assay with M19-MEL melanoma was over 100 µM throughout.
For the compound `CC[C@H](C)C(=O)O[C@H]1C[C@@H](C)C=C2C=C[C@H](C)[C@H](CC[C@@H]3C[C@@H](O)CC(=O)O3)[C@H]21`, the TGI in the assay with DLD-1 colon, in the assay with DMS 114 small cell lung, in the assay with HOP-18 NSCLC, with LXFL 529 NSCLC and with M19-MEL melanoma was over 30 µM each time.
As to `COc1cc2ccnc(-c3n[nH]c4cc(OC)c(OC)cc34)c2cc1OC`, the TGI with DMS 114 small cell lung was over 100 µM; in the assay on HOP-18 NSCLC, over 100 µM; in the assay on LXFL 529 NSCLC, over 100 µM; in the assay with M19-MEL melanoma, over 100 µM; in the assay on RXF-631 renal it was 93.4 µM; in the assay on XF 498 CNS, over 100 µM.
Take `O=C(/C=C/c1ccco1)N1CCN(Cc2ccccc2)CC1`: the TGI in the assay on DLD-1 colon, in the assay on DMS 114 small cell lung, in the assay on HOP-18 NSCLC, with LXFL 529 NSCLC, with M19-MEL melanoma and in the assay on RXF-631 renal was over 100 µM throughout. Further, the TGI in the assay on SNB-78 CNS and in the assay with XF 498 CNS was over 100 µM throughout.
In the case of `COC(=O)c1ccc(N/C=C(/C#N)c2ccsc2)cc1`, the TGI in the assay on DLD-1 colon is over 100 µM; in the assay on DMS 114 small cell lung, 43.8 µM; with LXFL 529 NSCLC, 37.5 µM; in the assay with M19-MEL melanoma it was over 100 µM; in the assay on SNB-78 CNS it was 43.4 µM.
With `COc1ccccc1NC(=O)C1=C(C)NC(C)=C(C(=O)Nc2ccccc2OC)C1c1ccc(C2C(C(=O)Nc3ccccc3OC)=C(C)NC(C)=C2C(=O)Nc2ccccc2OC)cc1`, the TGI amounted to 2.66 µM with DLD-1 colon; 21.6 µM with DMS 114 small cell lung; 31.9 µM in the assay with HOP-18 NSCLC; 5.09 µM in the assay with LXFL 529 NSCLC; 11.5 µM in the assay on M19-MEL melanoma; 13.7 µM in the assay with RXF-631 renal. The TGI with SNB-78 CNS came out at 23.3 µM; in the assay with XF 498 CNS it was 5.64 µM.
As to `CN(C)C(=S)/N=C(\N)N(C)C`, the TGI in the assay with DLD-1 colon, with DMS 114 small cell lung, with HOP-18 NSCLC, in the assay with LXFL 529 NSCLC, with M19-MEL melanoma and in the assay with RXF-631 renal was over 100 µM throughout. The TGI in the assay on SNB-78 CNS and in the assay with XF 498 CNS was over 100 µM throughout.
As for `COC(=O)C1OC(SCCN)C(O)C(O)C1O` (configuration not stated), the TGI in the assay with MDA-N is over 100 µM.
Take `COc1ccccc1C(=O)Nc1ccc(Cl)c(C(=O)OC(C)C)c1`: the TGI in the assay with DMS 114 small cell lung was 63.8 µM; with HOP-18 NSCLC, over 100 µM; with M19-MEL melanoma, over 100 µM; with MDA-N, over 100 µM; with RXF-631 renal it was over 100 µM; in the assay with SNB-78 CNS it was over 100 µM. For the same compound, the TGI with XF 498 CNS was found to be 54.7 µM.
For the compound `NC(=O)/C=C/c1c[nH]c2nccnc12`, the TGI in the assay with DLD-1 colon is 4.83 µM; in the assay on DMS 114 small cell lung, 8.53 µM; with HOP-18 NSCLC it was 0.793 µM; with LXFL 529 NSCLC, 0.611 µM; with M19-MEL melanoma, 79 µM; with MDA-N it was over 75.2 µM.
On to `CCOc1ccc2c(c1)[n+]([O-])c(-c1ccc([N+](=O)[O-])cc1)c(N)[n+]2[O-]`, for which the TGI in the assay with DLD-1 colon, with DMS 114 small cell lung, with HOP-18 NSCLC, with LXFL 529 NSCLC, in the assay on M19-MEL melanoma and in the assay on RXF-631 renal was over 100 µM each time. In addition, in the assay with SNB-78 CNS, the TGI is over 100 µM.
Consider `OCC(O)C(OC1OC(CO)C(O)C(O)C1O)c1nn(-c2ccc(Cl)cc2)c2nc3cc(Cl)c(Cl)cc3nc12` (configuration not stated), for which the TGI in the assay on DLD-1 colon, in the assay on DMS 114 small cell lung, with LXFL 529 NSCLC, in the assay with M19-MEL melanoma, in the assay on SNB-78 CNS and in the assay with XF 498 CNS was over 100 µM in each case.
With `O=C(CC(=O)c1cccc2ccccc12)C(=O)Nc1nccs1`, the TGI in the assay with DLD-1 colon, with HOP-18 NSCLC, with LXFL 529 NSCLC, in the assay with M19-MEL melanoma and in the assay on SNB-78 CNS was over 100 µM throughout.
Regarding `COC(=O)CCC(=O)Nc1cc(C)ccc1C`, the TGI in the assay on DLD-1 colon, in the assay on DMS 114 small cell lung, with HOP-18 NSCLC, in the assay with LXFL 529 NSCLC, in the assay with M19-MEL melanoma and in the assay on RXF-631 renal was over 100 µM throughout. The TGI in the assay on SNB-78 CNS and in the assay with XF 498 CNS was over 100 µM in each case.
Compound `C=C(C)C1Cc2cc(C(C)=O)ccc2O1` (configuration not stated) registered a TGI in the assay with MDA-N of over 100 µM.
With `NC(=S)N/N=C1/C(=O)N(c2ccccc2)C(=O)C1C(=O)Nc1ccccc1` (configuration not stated), the TGI with DMS 114 small cell lung, in the assay on HOP-18 NSCLC, in the assay on LXFL 529 NSCLC, in the assay with M19-MEL melanoma, in the assay on RXF-631 renal and with SNB-78 CNS was over 100 µM throughout. In the assay on XF 498 CNS, this compound registered a TGI of over 100 µM.
`CC(NNC(=S)N1CCN(c2ccccn2)CC1)c1cccc[n+]1[O-]` (configuration not stated): the TGI in the assay with MDA-N was over 100 µM.
On to `O=C(O)c1ccccc1C(=O)Nc1cc2c(cc1Br)-c1ccccc1C2=O`, for which the TGI with MDA-N was over 100 µM.
In the case of `C=CC(=O)OCCCS(=O)(=O)[O-].C=CC(=O)OCCCS(=O)(=O)[O-].NC1CCCCC1N.[Pt+4]`, the GI50 in the assay with DLD-1 colon, in the assay with HOP-18 NSCLC, with LXFL 529 NSCLC, in the assay on M19-MEL melanoma and in the assay on SNB-78 CNS was over 25 µM each time. Further, the TGI with DLD-1 colon, in the assay on HOP-18 NSCLC, in the assay with LXFL 529 NSCLC, with M19-MEL melanoma and in the assay with SNB-78 CNS was over 25 µM in each case.
For the compound `CCOC(=O)C1=C(Nc2cccc3ccccc23)OCC1=O`, the TGI in the assay with DLD-1 colon, with LXFL 529 NSCLC, in the assay with RXF-631 renal, in the assay on SNB-78 CNS and in the assay with XF 498 CNS was over 100 µM in each case.
As for `C#CCOCn1cnc2c(N)ncnc21`, the TGI in the assay on DLD-1 colon, with DMS 114 small cell lung, in the assay with HOP-18 NSCLC, in the assay on LXFL 529 NSCLC, in the assay with M19-MEL melanoma and in the assay with RXF-631 renal was over 100 µM each time. Moreover, the TGI with SNB-78 CNS and with XF 498 CNS was over 100 µM each time.
With `CSc1ccc(NC(=O)CCl)cc1`, in the assay with MDA-N, the TGI was over 10 µM.
For `Nc1ncnc2c1N=CN(Oc1ccccc1)N2`, the TGI in the assay on DLD-1 colon, with DMS 114 small cell lung, in the assay on LXFL 529 NSCLC, in the assay on M19-MEL melanoma, in the assay on RXF-631 renal and in the assay on SNB-78 CNS was over 100 µM in each case. The same compound yielded a TGI with XF 498 CNS of over 100 µM.
With `CC(C)CCCC(C)[C@H]1CCC2C3CC=C4C[C@@H](OC(=O)CC(CC(=O)[O-])C(=O)[O-])CC[C@]4(C)C3CC[C@@]21C.N.N.[Pt+4]` (some centres not stated), in the assay on HOP-18 NSCLC, the GI50 was over 100 µM and the TGI was over 100 µM. Besides, in the assay with SNB-78 CNS, the GI50 is over 100 µM and the TGI is over 100 µM.
`N#CC1=C(N)Oc2c(ccc3cccnc23)C1c1ccccc1` (configuration not stated): the TGI in the assay with DLD-1 colon is over 100 µM; with DMS 114 small cell lung it was 7.98 µM; with HOP-18 NSCLC it was over 100 µM; in the assay with LXFL 529 NSCLC, over 100 µM; in the assay on M19-MEL melanoma it was over 100 µM; with SNB-78 CNS, 9.36 µM. This compound also came in with a TGI in the assay with XF 498 CNS of 77.7 µM.
Take `CNC(=O)NCCCCC(NC(=O)OCc1ccccc1)C(=O)OCc1ccccc1` (configuration not stated): the TGI with DLD-1 colon is over 100 µM; with DMS 114 small cell lung it was 65.7 µM; in the assay on LXFL 529 NSCLC, over 100 µM; with M19-MEL melanoma, 48 µM; in the assay with RXF-631 renal, 46.1 µM; with SNB-78 CNS, 70.8 µM. For the same compound, in the assay with XF 498 CNS, the TGI amounted to 33.2 µM.
For the compound `CC(C)(C)c1cc(C#N)c2c(c1)C(=O)OC2(c1ccccc1)c1ccccc1C#N` (configuration not stated), the TGI in the assay on DLD-1 colon, in the assay on DMS 114 small cell lung, in the assay with HOP-18 NSCLC, in the assay with LXFL 529 NSCLC, with M19-MEL melanoma and in the assay on SNB-78 CNS was over 100 µM in each case. The TGI in the assay on XF 498 CNS is over 100 µM.
In the case of `CC1=C(C(=O)NCc2ccccc2)C(c2ccc(N(C)C)cc2)C(C(=O)NCc2ccccc2)=C(C)N1`, the TGI with DLD-1 colon, with DMS 114 small cell lung, in the assay with LXFL 529 NSCLC, in the assay on M19-MEL melanoma, in the assay with RXF-631 renal and with SNB-78 CNS was over 100 µM each time. In addition, the TGI in the assay on XF 498 CNS is over 100 µM.
`CCOc1cc(CCNC)c2c(ccc3ccc(OC)c(O)c32)c1OC` gave a TGI in the assay on MDA-N of 10.5 µM.
`C#CCn1c2c(c3ccccc3c1=O)C(=O)c1ccccc1-2` returned a TGI in the assay with MDA-N of over 100 µM.
`Cc1cccc(/C=N/N=C(\N)NO)n1`: the TGI was over 100 µM in the assay on DLD-1 colon; over 100 µM with DMS 114 small cell lung; 53.1 µM in the assay with LXFL 529 NSCLC; over 100 µM in the assay with M19-MEL melanoma; over 100 µM in the assay with RXF-631 renal; over 100 µM in the assay on SNB-78 CNS. The compound also returned a TGI in the assay on XF 498 CNS of over 100 µM.
With `CC/C(=N/O)C(C)C(=O)CCC(=O)Nc1ccc(Cl)cc1` (configuration not stated), the TGI in the assay on DLD-1 colon, in the assay on DMS 114 small cell lung, with HOP-18 NSCLC, in the assay with LXFL 529 NSCLC, with M19-MEL melanoma and with SNB-78 CNS was over 100 µM throughout. The compound further displayed a TGI with XF 498 CNS of over 100 µM.
